Molecular target: T1, PI3Kα (Homo sapiens, UniProt P42336)
T1 construct: gene PIK3CA
Experiment: ADP-Glo Max kinase assay
Assay type: biochemical

T1 sequence (P42336 whole entry): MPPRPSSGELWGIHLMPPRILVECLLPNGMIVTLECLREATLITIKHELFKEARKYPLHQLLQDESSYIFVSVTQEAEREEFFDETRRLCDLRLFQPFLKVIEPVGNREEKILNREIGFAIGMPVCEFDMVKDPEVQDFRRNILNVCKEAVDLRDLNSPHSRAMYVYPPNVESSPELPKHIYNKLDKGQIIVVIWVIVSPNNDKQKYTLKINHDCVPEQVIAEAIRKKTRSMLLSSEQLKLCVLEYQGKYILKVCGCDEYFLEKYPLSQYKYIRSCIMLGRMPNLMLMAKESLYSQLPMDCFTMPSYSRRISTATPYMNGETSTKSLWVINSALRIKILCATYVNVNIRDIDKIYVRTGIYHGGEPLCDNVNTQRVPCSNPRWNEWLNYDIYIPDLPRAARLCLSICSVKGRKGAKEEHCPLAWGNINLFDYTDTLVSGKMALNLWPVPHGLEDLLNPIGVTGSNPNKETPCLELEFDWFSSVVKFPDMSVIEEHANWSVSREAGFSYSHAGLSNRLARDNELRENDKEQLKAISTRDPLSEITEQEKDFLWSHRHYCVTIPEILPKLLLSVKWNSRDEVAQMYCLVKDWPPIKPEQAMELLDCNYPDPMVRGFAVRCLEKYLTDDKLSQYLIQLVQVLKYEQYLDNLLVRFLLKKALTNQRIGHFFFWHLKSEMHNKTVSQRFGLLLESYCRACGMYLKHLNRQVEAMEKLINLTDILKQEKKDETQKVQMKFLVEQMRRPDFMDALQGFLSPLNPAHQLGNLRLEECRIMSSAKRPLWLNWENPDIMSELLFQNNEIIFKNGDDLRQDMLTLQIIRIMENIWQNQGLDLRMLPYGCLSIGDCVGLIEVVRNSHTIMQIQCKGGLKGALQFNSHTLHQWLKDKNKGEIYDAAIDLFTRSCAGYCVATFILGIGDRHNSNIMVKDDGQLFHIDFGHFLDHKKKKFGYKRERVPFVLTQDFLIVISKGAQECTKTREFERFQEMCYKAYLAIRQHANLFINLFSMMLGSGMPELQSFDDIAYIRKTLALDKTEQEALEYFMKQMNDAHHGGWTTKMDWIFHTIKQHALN

IC50: 1.94 ± 0.66 nM
Compound: c1ccc(-c2cn3cc(-c4ccc5ncnc(NCC6CCOCC6)c5c4)ccc3n2)cc1 [13k, 6-(2-phenylimidazo[1,2-a]pyridin-6-yl)-N-((tetrahydro-2H-pyran-4-yl)methyl)quinazolin-4-amine]
